Test results: ChEMBL document CHEMBL1201862, “PubChem BioAssay data set” (2004)
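Cultured in 96-well plates, cells were exposed to test compound for 48 hours across five concentrations. Here, GI50 denotes the concentration required for 50% inhibition of growth.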 The source made the active and inactive calls. Rule as the data show it: active = GI50 up to about 1.1 µM and inactive = higher.

Tests used:
Assay in all cases: NCI tumour cell line growth inhibition, 48 h
[1] = test system: OVCAR-3
[2] = test system: COLO 205
[3] = test system: OVCAR-8
[4] = test system: LOX IMVI
[5] = test system: OVCAR-5
[6] = test system: SK-MEL-2
[7] = test system: UACC-62
[8] = test system: TK-10
[9] = test system: HCC 2998
[10] = test system: CAKI-1
[11] = test system: SW-620
[12] = test system: SK-MEL-5
[13] = test system: ACHN
[14] = test system: 786-0
[15] = test system: SNB-75
[16] = test system: A549
[17] = test system: UACC-257
[18] = test system: U-251
[19] = test system: DU-145
[20] = test system: HCT-116
[21] = test system: MDA-MB-435
[22] = test system: SF-268
[23] = test system: MCF7
[24] = test system: HOP-92
[25] = test system: SN12C
[26] = test system: OVCAR-4
[27] = test system: NCI-H23
[28] = test system: NCI-H460
[29] = test system: NCI/ADR-RES
[30] = test system: HCT-15
[31] = test system: BT-549
[32] = test system: HL-60
[33] = test system: NCI-H226
[34] = test system: M14
[35] = test system: T47D
[36] = test system: MDA-N
[37] = test system: HT-29
[38] = test system: SF-539
[39] = test system: SK-MEL-28
[40] = test system: A498
[41] = test system: SNB-19
[42] = test system: UO-31
[43] = test system: SK-OV-3
[44] = test system: IGROV-1
[45] = test system: HOP-62
[46] = test system: SF-295
[47] = test system: KM12
[48] = test system: EKVX
[49] = test system: MDA-MB-231
[50] = test system: RXF 393
[51] = test system: CCRF-CEM
[52] = test system: PC-3
[53] = test system: NCI-H522
[54] = test system: RPMI-8226
[55] = test system: Malme-3M
[56] = test system: SR
[57] = test system: K562
[58] = test system: MOLT-4
[59] = test system: Hs-578T

`CC1=C(C(=O)NNC(=O)Cc2ccccc2)CC(C(=O)NNC(=O)Cc2ccccc2)=C(C)N1` was tested, and the GI50 [1] was > 100 µM (inactive), the GI50 [2] was > 100 µM (inactive) and the GI50 [3] was > 100 µM (inactive). The GI50 [4] was 80 µM (inactive), the GI50 [5] was > 100 µM (inactive) and the GI50 [6] was > 100 µM (inactive). The GI50 [7] was 35.4 µM (inactive), the GI50 [8] was > 100 µM (inactive) and the GI50 [9] was > 100 µM (inactive). The GI50 [10] was > 100 µM (inactive), the GI50 [11] was > 100 µM (inactive) and the GI50 [12] was > 100 µM (inactive). For the same molecule, the GI50 [13] was > 100 µM (inactive), the GI50 [14] was > 100 µM (inactive) and the GI50 [15] was > 100 µM (inactive). For the same molecule, the GI50 [16] was > 100 µM (inactive), the GI50 [17] was > 100 µM (inactive) and the GI50 [18] was > 100 µM (inactive). For the same molecule, the GI50 [19] was > 100 µM (inactive), the GI50 [20] was > 100 µM (inactive) and the GI50 [21] was 89.1 µM (inactive). For the same molecule, the GI50 [22] was > 100 µM (inactive), the GI50 [23] was > 100 µM (inactive) and the GI50 [24] was > 100 µM (inactive). For the same molecule, the GI50 [25] was > 100 µM (inactive), the GI50 [26] was > 100 µM (inactive) and the GI50 [27] was > 100 µM (inactive). The GI50 [28] was > 100 µM (inactive), the GI50 [29] was > 100 µM (inactive) and the GI50 [30] was over 100 µM. The GI50 [31] was > 100 µM (inactive), the GI50 [32] was 25.5 µM (inactive) and the GI50 [33] was > 100 µM (inactive). The GI50 [34] was > 100 µM (inactive), the GI50 [35] was 54.8 µM (inactive) and the GI50 [36] was > 100 µM (inactive). The GI50 [37] was > 100 µM (inactive), the GI50 [38] was > 100 µM (inactive) and the GI50 [39] was > 100 µM (inactive). For the same molecule, the GI50 [40] was > 100 µM (inactive), the GI50 [41] was > 100 µM (inactive) and the GI50 [42] was > 100 µM (inactive). The GI50 [43] was > 100 µM (inactive), the GI50 [44] was > 100 µM (inactive) and the GI50 [45] was > 100 µM (inactive). For the same molecule, the GI50 [46] was > 100 µM (inactive), the GI50 [47] was > 100 µM (inactive) and the GI50 [48] was > 100 µM (inactive). The GI50 [49] was > 100 µM (inactive) and the GI50 [50] was 47.8 µM (inactive).

`COC(=O)CCC(=O)c1ccc2c(c1)CCC2` was tested, and the GI50 [51] was > 100 µM (inactive), the GI50 [1] was > 100 µM (inactive) and the GI50 [3] was > 100 µM (inactive). The GI50 [4] was > 100 µM (inactive), the GI50 [52] was > 100 µM (inactive) and the GI50 [53] was > 100 µM (inactive). The GI50 [5] was > 100 µM (inactive), the GI50 [6] was > 100 µM (inactive) and the GI50 [8] was > 100 µM (inactive). For the same molecule, the GI50 [9] was > 100 µM (inactive), the GI50 [10] was > 100 µM (inactive) and the GI50 [11] was > 100 µM (inactive). The GI50 [12] was > 100 µM (inactive), the GI50 [54] was > 100 µM (inactive) and the GI50 [13] was > 100 µM (inactive). For the same molecule, the GI50 [55] was > 100 µM (inactive), the GI50 [14] was > 100 µM (inactive) and the GI50 [15] was > 100 µM (inactive). For the same molecule, the GI50 [16] was > 100 µM (inactive), the GI50 [17] was > 100 µM (inactive) and the GI50 [18] was > 100 µM (inactive). For the same molecule, the GI50 [19] was > 100 µM (inactive), the GI50 [20] was > 100 µM (inactive) and the GI50 [21] was > 100 µM (inactive). The GI50 [22] was > 100 µM (inactive), the GI50 [56] was > 100 µM (inactive) and the GI50 [23] was > 100 µM (inactive). For the same molecule, the GI50 [24] was > 100 µM (inactive), the GI50 [26] was > 100 µM (inactive) and the GI50 [27] was > 100 µM (inactive). For the same molecule, the GI50 [57] was > 100 µM (inactive), the GI50 [28] was > 100 µM (inactive) and the GI50 [29] was > 100 µM (inactive). The GI50 [58] was > 100 µM (inactive), the GI50 [30] was over 100 µM and the GI50 [32] was > 100 µM (inactive). The GI50 [59] was > 100 µM (inactive), the GI50 [34] was > 100 µM (inactive) and the GI50 [35] was > 100 µM (inactive). The GI50 [36] was > 100 µM (inactive), the GI50 [37] was > 100 µM (inactive) and the GI50 [38] was > 100 µM (inactive). The GI50 [39] was > 100 µM (inactive), the GI50 [40] was > 100 µM (inactive) and the GI50 [41] was > 100 µM (inactive). For the same molecule, the GI50 [42] was > 100 µM (inactive), the GI50 [43] was > 100 µM (inactive) and the GI50 [44] was > 100 µM (inactive). The GI50 [45] was > 100 µM (inactive), the GI50 [46] was > 100 µM (inactive) and the GI50 [48] was > 100 µM (inactive). The GI50 [49] was > 100 µM (inactive) and the GI50 [50] was > 100 µM (inactive).

`Clc1ncc(Cl)c(Cl)n1` was tested, and the GI50 [51] was 2.47 µM (inactive), the GI50 [1] was 6.5 µM (inactive) and the GI50 [2] was 1.72 µM (inactive). The GI50 [3] was 3.86 µM (inactive), the GI50 [4] was 1.17 µM (inactive) and the GI50 [52] was 2.45 µM (inactive). The GI50 [53] was 1.48 µM (inactive), the GI50 [5] was 19.8 µM (inactive) and the GI50 [6] was 2.12 µM (inactive). The GI50 [7] was 1.91 µM (inactive), the GI50 [8] was 9.55 µM (inactive) and the GI50 [9] was 4.21 µM (inactive). The GI50 [10] was 1.86 µM (inactive), the GI50 [11] was 1.38 µM (inactive) and the GI50 [12] was 5.05 µM (inactive). For the same molecule, the GI50 [54] was 0.455 µM (active), the GI50 [13] was 1.92 µM (inactive) and the GI50 [55] was 1.88 µM (inactive). For the same molecule, the GI50 [14] was 1.99 µM (inactive), the GI50 [15] was 2.84 µM (inactive) and the GI50 [16] was 12.1 µM (inactive). The GI50 [17] was 5.22 µM (inactive), the GI50 [18] was 4.22 µM (inactive) and the GI50 [19] was 11.8 µM (inactive). For the same molecule, the GI50 [20] was 2.82 µM (inactive), the GI50 [21] was 2.65 µM (inactive) and the GI50 [22] was 9.12 µM (inactive). For the same molecule, the GI50 [56] was 1.61 µM (inactive), the GI50 [23] was 1.59 µM (inactive) and the GI50 [24] was 1.81 µM (inactive). For the same molecule, the GI50 [25] was 1.73 µM (inactive), the GI50 [26] was 2.08 µM (inactive) and the GI50 [27] was 15.5 µM (inactive). For the same molecule, the GI50 [57] was 0.832 µM (active), the GI50 [28] was 5.27 µM (inactive) and the GI50 [29] was 3.95 µM (inactive). For the same molecule, the GI50 [58] was 1.5 µM (inactive), the GI50 [30] was 2.24 µM and the GI50 [32] was 0.474 µM (active). For the same molecule, the GI50 [33] was 4.85 µM (inactive), the GI50 [59] was 2.72 µM (inactive) and the GI50 [34] was 3.24 µM (inactive). The GI50 [35] was 2.36 µM (inactive), the GI50 [36] was 3.37 µM (inactive) and the GI50 [37] was 1.36 µM (inactive). The GI50 [38] was 8.97 µM (inactive), the GI50 [39] was 3.42 µM (inactive) and the GI50 [40] was 19.1 µM (inactive). For the same molecule, the GI50 [41] was 3.3 µM (inactive), the GI50 [42] was 3.17 µM (inactive) and the GI50 [43] was 4.7 µM (inactive). For the same molecule, the GI50 [44] was 9.66 µM (inactive), the GI50 [45] was 16.5 µM (inactive) and the GI50 [46] was 13.2 µM (inactive). The GI50 [47] was 9.14 µM (inactive), the GI50 [48] was 13.3 µM (inactive) and the GI50 [49] was 3.03 µM (inactive). The GI50 [50] was 2.05 µM (inactive).
